Results taken from PubChem BioAssay AID248 (DTP/NCI, 2004).
Where “and” joins values, the source holds several entries; their conditions need not be identical. Equal entries are not always repeated. Inconclusive results and toxic doses are left out. Rule as the data show it: active = T/C of 150% or more; inactive = T/C below 125%.

Test system: L1210 leukemia ip in BDF1 mice, survival T/C
Assay: NCI In Vivo Anticancer Drug Screen. Data for tumor model L1210 Leukemia (intraperitoneal) in B6D2F1 (BDF1) mice
Conditions: endpoint: mean survival time, higher = longer survival
Procedure, shortened: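 Each compound was tested against a transplantable tumor grown in mice. The endpoint was survival, with treated animals benchmarked against vehicle controls as a simple ratio.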

[1] = dose: 100.0 mg/kg/injection, schedule: Q01DX001 (ip), vehicle: Klucel (hydroxypropylcellulose) (HPC)
[2] = dose: 100.0 mg/kg/injection, schedule: Q04DX003 (ip), vehicle: Klucel (hydroxypropylcellulose) (HPC)
[3] = dose: 200.0 mg/kg/injection, schedule: Q01DX001 (ip), vehicle: Klucel (hydroxypropylcellulose) (HPC)
[4] = dose: 200.0 mg/kg/injection, schedule: Q04DX003 (ip), vehicle: Klucel (hydroxypropylcellulose) (HPC)
[5] = dose: 400.0 mg/kg/injection, schedule: Q01DX001 (ip), vehicle: Klucel (hydroxypropylcellulose) (HPC)
[6] = dose: 400.0 mg/kg/injection, schedule: Q04DX003 (ip), vehicle: Klucel (hydroxypropylcellulose) (HPC)
[7] = dose: 25.0 mg/kg/injection, schedule: Q01DX009 (ip), vehicle: saline
[8] = dose: 100.0 mg/kg/injection, schedule: Q04DX003 (ip), vehicle: saline with Tween-80
[9] = dose: 200.0 mg/kg/injection, schedule: Q04DX003 (ip), vehicle: saline with Tween-80
[10] = dose: 400.0 mg/kg/injection, schedule: Q04DX003 (ip), vehicle: saline with Tween-80
[11] = dose: 50.0 mg/kg/injection, schedule: Q01DX009 (ip), vehicle: Klucel (hydroxypropylcellulose) (HPC)
[12] = dose: 100.0 mg/kg/injection, schedule: Q01DX009 (ip), vehicle: Klucel (hydroxypropylcellulose) (HPC)
[13] = dose: 100.0 mg/kg/injection, schedule: Q01DX009 (ip), vehicle: saline with Tween-80
[14] = dose: 200.0 mg/kg/injection, schedule: Q01DX009 (ip), vehicle: saline with Tween-80
[15] = dose: 400.0 mg/kg/injection, schedule: Q01DX009 (ip), vehicle: saline with Tween-80
[16] = dose: 50.0 mg/kg/injection, schedule: Q01DX001 (ip), vehicle: saline
[17] = dose: 100.0 mg/kg/injection, schedule: Q01DX001 (ip), vehicle: saline
[18] = dose: 200.0 mg/kg/injection, schedule: Q01DX001 (ip), vehicle: saline
[19] = dose: 400.0 mg/kg/injection, schedule: Q01DX001 (ip), vehicle: saline
[20] = dose: 50.0 mg/kg/injection, schedule: Q01DX009 (ip), vehicle: saline with Tween-80
[21] = dose: 100.0 mg/kg/injection, schedule: Q01DX001 (ip), vehicle: saline with Tween-80
[22] = dose: 200.0 mg/kg/injection, schedule: Q01DX001 (ip), vehicle: saline with Tween-80
[23] = dose: 400.0 mg/kg/injection, schedule: Q01DX001 (ip), vehicle: saline with Tween-80

Measured: T/C

Cc1ccc2ccccc2c1NCCC(=O)O
inactive: [1] 101 % of control | [2] 104 % of control | [3] 100 % of control | [4] 98 % of control | [5] 91 % of control | [6] 102 % of control

Cc1cccc(Nc2c(N)nc(N)nc2N)c1
inactive: [7] 105 % of control | dose: 50.0 mg/kg/injection, schedule: Q01DX009 (ip), vehicle: saline 120 % of control | dose: 100.0 mg/kg/injection, schedule: Q04DX003 (ip), vehicle: saline 104 % of control

C/C(=C/C(=O)O)c1cc2ccccc2n1C
inactive: [8] 100 % of control | [9] 92 % of control | [10] 96 % of control

CC(C)(Oc1cccc2ccccc12)C(=O)O
inactive: [8] 100 % of control | [9] 105 % of control | [10] 93 % of control

CC(=O)OC(=O)c1ccc2c(c1)C(=O)c1ccccc1C2=O
inactive: dose: 25.0 mg/kg/injection, schedule: Q01DX009 (ip), vehicle: Klucel (hydroxypropylcellulose) (HPC) 100 % of control | dose: 50.0 mg/kg/injection, schedule: Q01DX001 (ip), vehicle: Klucel (hydroxypropylcellulose) (HPC) 105 % of control | [11] 98 % of control | [1] 111 % of control | [12] 102 % of control | [2] 100 % of control | [3] 111 % of control | [5] 96 % of control and 105 % of control

COc1ccc(C(=O)CC(C(=O)O)c2ccc3c(c2)OCO3)cc1OC (stereo not drawn)
inactive: [13] 96 % of control | [14] 98 % of control | [15] 98 % of control

COc1ccc(-n2cccc2/C=N\O)cc1OC
inactive: dose: 100.0 mg/kg/injection, schedule: Q04DX002 (ip), vehicle: Klucel (hydroxypropylcellulose) (HPC) 89 % of control | dose: 200.0 mg/kg/injection, schedule: Q04DX002 (ip), vehicle: Klucel (hydroxypropylcellulose) (HPC) 100 % of control | dose: 400.0 mg/kg/injection, schedule: Q04DX002 (ip), vehicle: Klucel (hydroxypropylcellulose) (HPC) 96 % of control

Cc1nc(N)cc(Cl)n1
inactive: [2] 101 % of control | [4] 103 % of control | [6] 90 % of control

O=C(Nc1ccc(F)c(Cl)c1)Nc1ccc(Cl)c(C(F)(F)F)c1
inactive: [13] 88 % of control | [14] 98 % of control

Cn1c(=O)c2ccc[n+]([O-])c2n(C)c1=O
inactive: [12] 101 % of control | [2] 103 % of control | dose: 200.0 mg/kg/injection, schedule: Q01DX009 (ip), vehicle: Klucel (hydroxypropylcellulose) (HPC) 108 % of control | [4] 96 % of control | dose: 400.0 mg/kg/injection, schedule: Q01DX009 (ip), vehicle: Klucel (hydroxypropylcellulose) (HPC) 105 % of control | [6] 107 % of control

Cc1cc(OCCCC(=O)O)ccc1Cl
inactive: [16] 104 % of control | [17] 104 % of control | [18] 102 % of control | [19] 96 % of control

CC(C)(c1ccccc1)[N+](C)(C)C
inactive: dose: 4.0 mg/kg/injection, schedule: Q01DX Z (ip), vehicle: saline 93 % of control | dose: 6.25 mg/kg/injection, schedule: Q01DX009 (ip), vehicle: saline 97 % of control | dose: 6.25 mg/kg/injection, schedule: Q04DX003 (ip), vehicle: saline 104 % of control | dose: 8.0 mg/kg/injection, schedule: Q01DX Z (ip), vehicle: saline 96 % of control | dose: 12.5 mg/kg/injection, schedule: Q01DX009 (ip), vehicle: saline 91 % of control | dose: 12.5 mg/kg/injection, schedule: Q04DX003 (ip), vehicle: saline 103 % of control | dose: 16.0 mg/kg/injection, schedule: Q01DX Z (ip), vehicle: saline 92 % of control | [7] 92 % of control | dose: 25.0 mg/kg/injection, schedule: Q04DX003 (ip), vehicle: saline 91 % of control

Cc1cccc(C2=N/C(=C\c3cccc4ccccc34)C(=O)O2)c1
inactive: [20] 102 % of control | [13] 91 % of control | [14] 91 % of control

CNC(=O)NC1C(O)COC(OC)C1O (stereo not drawn)
inactive: dose: 6.25 mg/kg/injection, schedule: Q01DX009 (ip), vehicle: saline with Tween-80 101 % of control | dose: 12.5 mg/kg/injection, schedule: Q01DX009 (ip), vehicle: saline with Tween-80 101 % of control | dose: 25.0 mg/kg/injection, schedule: Q01DX009 (ip), vehicle: saline with Tween-80 105 % of control | [20] 100 % of control

CCOC(=O)C(CC#N)C(=O)OCC
inactive: dose: 75.0 mg/kg/injection, schedule: Q01DX001 (ip), vehicle: carboxymethylcellulose (CMC) 104 % of control | dose: 150.0 mg/kg/injection, schedule: Q01DX001 (ip), vehicle: carboxymethylcellulose (CMC) 98 % of control | dose: 300.0 mg/kg/injection, schedule: Q01DX001 (ip), vehicle: carboxymethylcellulose (CMC) 96 % of control

Cc1cc(C)c(S(=O)(=O)C(=O)C(=O)NN)c(C)c1
inactive: [1] 104 % of control | [2] 115 % of control | [3] 106 % of control | [4] 109 % of control | [5] 106 % of control | [6] 104 % of control

O=C1c2ccccc2C(=O)N1CN1CCOCC1
inactive: [21] 105 % of control | [22] 94 % of control | [23] 98 % of control

CSc1nsc2nnc(N)n12
inactive: dose: 75.0 mg/kg/injection, schedule: Q01DX001 (ip), vehicle: saline 89 % of control | dose: 150.0 mg/kg/injection, schedule: Q01DX001 (ip), vehicle: saline 102 % of control

OC1(CCC2OCCO2)c2ccccc2-c2ccccc21
inactive: [21] 95 % of control | [13] 93 % of control | dose: 100.0 mg/kg/injection, schedule: Q04DX002 (ip), vehicle: saline with Tween-80 95 % of control and 100 % of control | [8] 96 % of control | [22] 90 % of control | [14] 96 % of control and 100 % of control | dose: 200.0 mg/kg/injection, schedule: Q04DX002 (ip), vehicle: saline with Tween-80 93 % of control and 102 % of control | [9] 96 % of control | [23] 93 % of control | [15] 96 % of control and 120 % of control | dose: 400.0 mg/kg/injection, schedule: Q04DX002 (ip), vehicle: saline with Tween-80 95 % of control | [10] 95 % of control

CC(C)(C)C(=O)Nc1ccc(S(=O)(=O)c2ccc(NC(=O)C(C)(C)C)cc2)cc1
inactive: [16] 95 % of control | [17] 93 % of control | [18] 93 % of control | [19] 98 % of control

CCOc1ccc2nc(Cl)sc2c1
inactive: [11] 92 % of control | dose: 75.0 mg/kg/injection, schedule: Q04DX003 (ip), vehicle: Klucel (hydroxypropylcellulose) (HPC) 93 % of control | [12] 94 % of control | dose: 150.0 mg/kg/injection, schedule: Q04DX003 (ip), vehicle: Klucel (hydroxypropylcellulose) (HPC) 96 % of control

O=C1Cc2ccccc21
inactive: [13] 97 % of control | [8] 95 % of control | [14] 97 % of control | [9] 94 % of control | [15] 96 % of control | [10] 98 % of control

CCCC#CC(=O)OCC
inactive: dose: 100.0 mg/kg/injection, schedule: Q04DX002 (ip), vehicle: saline 91 % of control | dose: 200.0 mg/kg/injection, schedule: Q04DX002 (ip), vehicle: saline 97 % of control | dose: 400.0 mg/kg/injection, schedule: Q04DX002 (ip), vehicle: saline 89 % of control

OCC(Cc1ccccc1)N1CCCCC1 (stereo not drawn)
inactive: dose: 5.0 mg/kg/injection, schedule: Q01DX001 (ip), vehicle: saline 109 % of control | dose: 10.0 mg/kg/injection, schedule: Q01DX001 (ip), vehicle: saline 96 % of control | dose: 20.0 mg/kg/injection, schedule: Q01DX001 (ip), vehicle: saline 96 % of control | dose: 40.0 mg/kg/injection, schedule: Q01DX001 (ip), vehicle: saline 96 % of control | dose: 80.0 mg/kg/injection, schedule: Q01DX001 (ip), vehicle: saline 96 % of control
